Earlier results on five compounds are cited in article PMC9230797, “Integration of a Physiologically Based Pharmacokinetic and Pharmacodynamic Model for Tegoprazan and Its Metabolite: Application for Predicting Food Effect and Intragastric pH Alterations” (Pharmaceutics, 2022).

Like-named read-outs stand apart in the source and are kept apart here.

Details of data set [1]: method as in PMID 28378544. The settings on record: cited from earlier work.
For data set [2] the following is noted: cited from earlier work.
Details of data set [3]: method as in PMID 19006606. Conditions: cited from earlier work.

`COc1ccc2[nH]c([S+]([O-])Cc3ncc(C)c(OC)c3C)nc2c1` (stereo not drawn) [omeprazole]: the “mean AUC0–12 h” value in data set [1] (CYP2C19 EM, multiple administrations) is 1715 ng·h/mL; in data set [1] (CYP2C19 EM, single administration), 713.5 ng·h/mL; in data set [1] (CYP2C19 IM, multiple administrations), 2087 ng·h/mL; in data set [1] (CYP2C19 IM, single administration) it was 972.5 ng·h/mL; in data set [1] (CYP2C19 PM, multiple administrations) it was 3669 ng·h/mL; in data set [1] (CYP2C19 PM, single administration), 3652 ng·h/mL. The “AUC0–12 h ratio PM vs EM” value in data set [1] (multiple administrations) was 2.14 fold; in data set [1] (single administration) it was 5.12 fold. Besides, the “AUC0–12 h ratio PM vs IM” value in data set [1] (multiple administrations) was 1.76 fold; in data set [1] (single administration) it was 3.76 fold. Besides, the “PK parameters (Tmax, AUC, half-life, Cmax) after a high-fat meal” value (“PK parameters … after a high-fat meal” below) in data set [2] is “tended to fluctuate significantly”.

For `CNCc1cc(-c2ccccc2F)n(S(=O)(=O)c2cccnc2)c1` [vonoprazan], in data set [2], the “effect of food intake on PK parameters” value is “not significantly affected”.

Consider `COc1ccnc(C[S+]([O-])c2nc3ccc(OC(F)F)cc3[nH]2)c1OC` (stereo not drawn) [pantoprazole], for which the “PK parameters … after a high-fat meal” value in data set [2] is recorded as “tended to fluctuate significantly”.

On to `COc1ccc2[nH]c([S+]([O-])Cc3ncc(C)c(OC)c3C)nc2n1` (stereo not drawn) [tenatoprazole], for which the plasma half-life entry in data set [3] was “up to 9 h”.

Take `COCCCOc1ccnc(C[S+]([O-])c2nc3ccccc3[nH]2)c1C` (stereo not drawn) [rabeprazole]: the “PK parameters … after a high-fat meal” value in data set [2] is listed as “tended to fluctuate significantly”.
